ChEMBL document CHEMBL4393686, “InCl3 mediated heteroarylation of indoles and their derivatization via CH activation strategy: Discovery of 2-(1H-indol-3-yl)-quinoxaline derivatives as a new class of PDE4B selective inhibitors for arthritis and/or multiple sclerosis” (Eur J Med Chem, 2019)
Calls of active or inactive are those of the source. The calls are words filed in the database; no cut-off is given here.

Columns and labels:
[1] = AUClast in BALB/c mouse at 10 mg/kg, iv measured for 24 hrs post dose by LC-MS/MS analysis; type: ADME, organism-based; design: dose 10 mg/kg, route intravenous, time 0 - last; details: in vivo
[2] = biological target: 3',5'-cyclic-AMP phosphodiesterase 7B (Homo sapiens) (UniProt Q9NP56); assay: Inhibition of recombinant N-terminal GST tagged and C-terminal His-tagged human PDE7B (109-ens aa) expressed in Sf9 cells using FAM-cAMP as substrate at 10 uM incubated for 60 mins by fluorescence plate reader analysis
Chain of 3',5'-cyclic-AMP phosphodiesterase 7B (Homo sapiens) (Q9NP56 whole entry): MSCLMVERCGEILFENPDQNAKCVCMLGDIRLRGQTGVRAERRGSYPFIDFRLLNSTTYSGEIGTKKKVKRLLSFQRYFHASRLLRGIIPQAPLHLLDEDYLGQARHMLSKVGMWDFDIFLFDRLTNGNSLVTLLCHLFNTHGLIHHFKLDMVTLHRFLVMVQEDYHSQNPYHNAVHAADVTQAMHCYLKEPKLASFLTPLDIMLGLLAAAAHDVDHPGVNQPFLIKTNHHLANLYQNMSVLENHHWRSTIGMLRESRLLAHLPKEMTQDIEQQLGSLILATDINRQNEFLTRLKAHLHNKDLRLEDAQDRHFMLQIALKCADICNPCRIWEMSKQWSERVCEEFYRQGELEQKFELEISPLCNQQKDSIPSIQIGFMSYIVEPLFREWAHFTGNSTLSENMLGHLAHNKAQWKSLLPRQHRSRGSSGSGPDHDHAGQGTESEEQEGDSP

[3] = Toxicity in zebrafish embryo assessed as change in body shape at 1 to 100 uM; design: species or system Danio rerio; details: in vivo
[4] = Hepatotoxicity in zebrafish embryos assessed as liver size at 1 to 100 uM incubated for 7 dpf; type: toxicity, Danio rerio; details: in vivo
[5] = biological target: cAMP and cAMP-inhibited cGMP 3',5'-cyclic phosphodiesterase 10A (Homo sapiens) (UniProt Q9Y233); assay: Inhibition of recombinant -N-terminal GST-tagged human PDE10A1 (aa 2-789) expressed in Sf9 cells using FAM-cAMP as substrate at 10 uM incubated for 60 mins by fluorescence plate reader analysis
Chain of cAMP and cAMP-inhibited cGMP 3',5'-cyclic phosphodiesterase 10A (Homo sapiens) (Q9Y233 whole entry, the tested form may be a part): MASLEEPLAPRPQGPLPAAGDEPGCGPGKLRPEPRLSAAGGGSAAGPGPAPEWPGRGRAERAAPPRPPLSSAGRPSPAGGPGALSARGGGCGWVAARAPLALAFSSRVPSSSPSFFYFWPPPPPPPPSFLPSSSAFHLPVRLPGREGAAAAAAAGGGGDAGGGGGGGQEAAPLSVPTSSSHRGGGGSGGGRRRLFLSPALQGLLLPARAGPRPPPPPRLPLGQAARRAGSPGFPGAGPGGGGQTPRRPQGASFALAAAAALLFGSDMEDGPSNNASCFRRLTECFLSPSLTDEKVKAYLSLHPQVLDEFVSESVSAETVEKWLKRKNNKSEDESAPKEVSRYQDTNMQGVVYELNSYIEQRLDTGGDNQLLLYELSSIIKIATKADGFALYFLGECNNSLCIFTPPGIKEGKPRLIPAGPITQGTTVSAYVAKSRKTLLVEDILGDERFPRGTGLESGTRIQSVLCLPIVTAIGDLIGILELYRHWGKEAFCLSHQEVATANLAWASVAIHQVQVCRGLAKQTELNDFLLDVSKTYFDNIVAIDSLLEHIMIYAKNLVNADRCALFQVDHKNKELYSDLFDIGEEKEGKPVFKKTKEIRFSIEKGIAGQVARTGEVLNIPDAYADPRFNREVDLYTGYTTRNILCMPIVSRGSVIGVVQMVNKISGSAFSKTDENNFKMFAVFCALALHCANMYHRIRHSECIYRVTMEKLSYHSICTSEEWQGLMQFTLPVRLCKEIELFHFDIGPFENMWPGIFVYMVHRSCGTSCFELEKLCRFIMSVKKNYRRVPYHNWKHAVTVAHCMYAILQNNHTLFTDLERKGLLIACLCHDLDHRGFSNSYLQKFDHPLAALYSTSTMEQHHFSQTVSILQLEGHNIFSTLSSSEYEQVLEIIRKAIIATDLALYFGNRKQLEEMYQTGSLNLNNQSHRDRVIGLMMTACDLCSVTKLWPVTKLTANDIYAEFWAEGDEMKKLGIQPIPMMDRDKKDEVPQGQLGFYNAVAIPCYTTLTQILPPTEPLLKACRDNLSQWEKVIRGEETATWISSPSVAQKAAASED

[6] = Toxicity in zebrafish embryo assessed as effect in liver formation at 1 to 100 uM; design: species or system Danio rerio; details: in vivo
Danio rerio = assay: Anti-sclerotic activity in MOG/CFA-induced zebra fish EAE model assessed as reduction in lesion score at 3 to 30 mg/kg, ip measured for 7 days; type: functional, organism-based
Rattus norvegicus [7] = assay: Antiarthritic activity in complete Freund's adjuvant-induced Wistar rat arthritis model assessed as reduction in synovial inflammation at 30 mg/kg, ip administered from 11th day to 20th day by H&E staining based microscopic analysis; type: functional, organism-based
[8] = Toxicity in zebrafish embryo assessed as effect in heart formation at 1 to 100 uM; type: tissue-based, Danio rerio; details: in vivo
[9] = Inhibition of recombinant N-terminal GST-tagged full length human PDE4A1A expressed in Sf9 cells using cAMP as substrate at 10 uM incubated for 60 mins by fluorescence plate reader analysis
[10] = biological target: cGMP-inhibited 3',5'-cyclic phosphodiesterase 3A (Homo sapiens) (UniProt Q14432); assay: Inhibition of recombinant PDE3A (unknown origin) using FAM-cAMP as substrate at 10 uM incubated for 60 mins by fluorescence plate reader analysis
[11] = biological target: cGMP-dependent 3',5'-cyclic phosphodiesterase (Homo sapiens) (UniProt O00408); assay: Inhibition of recombinant N-terminal-GST-Th-tagged full length human PDE2A1 expressed in Sf9 cells using FAM-cAMP as substrate at 10 uM incubated for 60 mins by fluorescence plate reader analysis
[12] = Tmax in BALB/c mouse at 10 mg/kg, iv measured for 24 hrs post dose by LC-MS/MS analysis; type: ADME, organism-based; details: in vivo
[13] = biological target: cAMP and cAMP-inhibited cGMP 3',5'-cyclic phosphodiesterase 10A (Homo sapiens) (UniProt Q9Y233); assay: Inhibition of recombinant N-terminal GST-tagged full length human PDE10A2 expressed in Sf9 cells using FAM-cAMP as substrate at 10 uM incubated for 60 mins by fluorescence plate reader analysis
Rattus norvegicus [14] = assay: Antiinflammatory activity in complete Freund's adjuvant-induced Wistar rat arthritis model assessed as reduction in TNFalpha mRNA expression at 30 mg/kg, ip administered from 11th day to 20th day by qPCR analysis; type: functional, organism-based
[15] = Toxicity in zebrafish embryo assessed as effect in lower jaw formation at 1 to 100 uM; design: species or system Danio rerio; details: in vivo
[16] = biological target: High affinity cAMP-specific and IBMX-insensitive 3',5'-cyclic phosphodiesterase 8A (Homo sapiens) (UniProt O60658); assay: Inhibition of recombinant N-terminal GST-tagged full length human PDE8A1 expressed in Sf9 cells using FAM-cAMP as substrate at 10 uM incubated for 60 mins by fluorescence plate reader analysis
Chain of High affinity cAMP-specific and IBMX-insensitive 3',5'-cyclic phosphodiesterase 8A (Homo sapiens) (O60658 whole entry): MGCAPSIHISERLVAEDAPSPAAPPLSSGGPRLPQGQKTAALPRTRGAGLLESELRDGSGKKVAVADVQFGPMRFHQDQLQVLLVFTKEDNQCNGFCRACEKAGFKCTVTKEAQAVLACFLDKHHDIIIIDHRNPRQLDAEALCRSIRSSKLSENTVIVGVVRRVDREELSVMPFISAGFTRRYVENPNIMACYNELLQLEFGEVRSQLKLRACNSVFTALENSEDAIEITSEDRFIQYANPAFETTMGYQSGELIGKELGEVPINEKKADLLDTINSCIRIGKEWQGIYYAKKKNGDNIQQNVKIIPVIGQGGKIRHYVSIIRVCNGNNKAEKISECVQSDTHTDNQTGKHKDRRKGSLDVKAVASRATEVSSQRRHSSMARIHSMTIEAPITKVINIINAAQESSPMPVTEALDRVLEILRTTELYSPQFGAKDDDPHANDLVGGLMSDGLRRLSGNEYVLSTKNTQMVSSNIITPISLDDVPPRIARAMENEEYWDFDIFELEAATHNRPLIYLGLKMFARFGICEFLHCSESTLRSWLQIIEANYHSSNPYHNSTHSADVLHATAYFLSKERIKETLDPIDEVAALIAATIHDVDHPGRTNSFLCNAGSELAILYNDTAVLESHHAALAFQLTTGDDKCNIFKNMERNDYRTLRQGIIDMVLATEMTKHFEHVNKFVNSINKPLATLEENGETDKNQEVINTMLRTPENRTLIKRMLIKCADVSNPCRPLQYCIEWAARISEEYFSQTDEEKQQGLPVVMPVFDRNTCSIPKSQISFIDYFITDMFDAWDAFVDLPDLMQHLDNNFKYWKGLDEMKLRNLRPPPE

[17] = Toxicity in zebrafish embryo assessed as effect in somite formation at 1 to 100 uM; design: species or system Danio rerio; details: in vivo
[18] = AUC (0 to infinity) in BALB/c mouse at 10 mg/kg, iv measured for 24 hrs post dose by LC-MS/MS analysis; type: ADME, organism-based; design: dose 10 mg/kg, time infinity, route intravenous; details: in vivo
Rattus norvegicus [19] = assay: Antiarthritic activity in complete Freund's adjuvant-induced Wistar rat arthritis model assessed as reduction in paw volume at 30 mg/kg, ip administered from 11th day to 20th day by vernier caliper analysis; type: functional, organism-based
[20] = Half life in BALB/c mouse at 10 mg/kg, iv measured for 24 hrs post dose by LC-MS/MS analysis; type: ADME, organism-based; details: in vivo
Homo sapiens [21] = species on record: Homo sapiens; assay: Selectivity index, ratio of IC50 for PDE4D2 (unknown origin) to IC50 for recombinant His-tagged human PDE4B expressed in sf9 cells using cAMP as substrate by PDELight HTS cAMP phosphodiesterase Kit based luminometry
[22] = biological target: Dual specificity calcium/calmodulin-dependent 3',5'-cyclic nucleotide phosphodiesterase 1C (Homo sapiens) (UniProt Q14123); assay: Inhibition of recombinant N-terminal GST tagged human PDE1C (2 to 634 aa) expressed in Sf9 cells at 10 uM using FAM-cAMP as substrate incubated for 60 mins by fluorescence plate reader analysis
Chain of Dual specificity calcium/calmodulin-dependent 3',5'-cyclic nucleotide phosphodiesterase 1C (Homo sapiens) (Q14123 whole entry, the tested form may be a part): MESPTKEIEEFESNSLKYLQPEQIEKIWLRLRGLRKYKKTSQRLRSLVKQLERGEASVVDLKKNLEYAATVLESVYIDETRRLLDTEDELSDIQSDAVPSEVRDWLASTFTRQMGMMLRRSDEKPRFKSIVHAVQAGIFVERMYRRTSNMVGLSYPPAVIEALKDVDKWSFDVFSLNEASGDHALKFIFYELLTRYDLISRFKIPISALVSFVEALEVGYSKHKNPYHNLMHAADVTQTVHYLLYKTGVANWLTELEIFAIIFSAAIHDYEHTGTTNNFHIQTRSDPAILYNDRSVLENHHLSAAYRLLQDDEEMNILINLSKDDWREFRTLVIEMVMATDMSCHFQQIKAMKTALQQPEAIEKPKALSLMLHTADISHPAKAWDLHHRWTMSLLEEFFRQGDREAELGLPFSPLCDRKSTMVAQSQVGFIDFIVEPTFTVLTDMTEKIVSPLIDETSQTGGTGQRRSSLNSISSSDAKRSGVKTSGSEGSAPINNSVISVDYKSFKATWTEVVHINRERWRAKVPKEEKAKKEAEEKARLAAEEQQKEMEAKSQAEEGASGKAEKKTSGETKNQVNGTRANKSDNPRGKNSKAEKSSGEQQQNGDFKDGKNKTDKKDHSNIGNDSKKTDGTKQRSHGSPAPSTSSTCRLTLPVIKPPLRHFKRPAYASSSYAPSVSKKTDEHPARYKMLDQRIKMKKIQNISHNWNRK

Rattus norvegicus [23] = assay: Antiarthritic activity in complete Freund's adjuvant-induced Wistar rat arthritis model assessed as reduction in pannus formation at 30 mg/kg, ip administered from 11th day to 20th day by H&E staining based microscopic analysis; type: functional, organism-based
[24] = biological target: cGMP-inhibited 3',5'-cyclic phosphodiesterase 3B (Homo sapiens) (UniProt Q13370); assay: Inhibition of recombinant N-terminal GST-tagged human PDE3B (592-end aa) expressed in Sf9 cells using FAM-cAMP as substrate at 10 uM incubated for 60 mins by fluorescence plate reader analysis
Chain of cGMP-inhibited 3',5'-cyclic phosphodiesterase 3B (Homo sapiens) (Q13370 whole entry, looked up): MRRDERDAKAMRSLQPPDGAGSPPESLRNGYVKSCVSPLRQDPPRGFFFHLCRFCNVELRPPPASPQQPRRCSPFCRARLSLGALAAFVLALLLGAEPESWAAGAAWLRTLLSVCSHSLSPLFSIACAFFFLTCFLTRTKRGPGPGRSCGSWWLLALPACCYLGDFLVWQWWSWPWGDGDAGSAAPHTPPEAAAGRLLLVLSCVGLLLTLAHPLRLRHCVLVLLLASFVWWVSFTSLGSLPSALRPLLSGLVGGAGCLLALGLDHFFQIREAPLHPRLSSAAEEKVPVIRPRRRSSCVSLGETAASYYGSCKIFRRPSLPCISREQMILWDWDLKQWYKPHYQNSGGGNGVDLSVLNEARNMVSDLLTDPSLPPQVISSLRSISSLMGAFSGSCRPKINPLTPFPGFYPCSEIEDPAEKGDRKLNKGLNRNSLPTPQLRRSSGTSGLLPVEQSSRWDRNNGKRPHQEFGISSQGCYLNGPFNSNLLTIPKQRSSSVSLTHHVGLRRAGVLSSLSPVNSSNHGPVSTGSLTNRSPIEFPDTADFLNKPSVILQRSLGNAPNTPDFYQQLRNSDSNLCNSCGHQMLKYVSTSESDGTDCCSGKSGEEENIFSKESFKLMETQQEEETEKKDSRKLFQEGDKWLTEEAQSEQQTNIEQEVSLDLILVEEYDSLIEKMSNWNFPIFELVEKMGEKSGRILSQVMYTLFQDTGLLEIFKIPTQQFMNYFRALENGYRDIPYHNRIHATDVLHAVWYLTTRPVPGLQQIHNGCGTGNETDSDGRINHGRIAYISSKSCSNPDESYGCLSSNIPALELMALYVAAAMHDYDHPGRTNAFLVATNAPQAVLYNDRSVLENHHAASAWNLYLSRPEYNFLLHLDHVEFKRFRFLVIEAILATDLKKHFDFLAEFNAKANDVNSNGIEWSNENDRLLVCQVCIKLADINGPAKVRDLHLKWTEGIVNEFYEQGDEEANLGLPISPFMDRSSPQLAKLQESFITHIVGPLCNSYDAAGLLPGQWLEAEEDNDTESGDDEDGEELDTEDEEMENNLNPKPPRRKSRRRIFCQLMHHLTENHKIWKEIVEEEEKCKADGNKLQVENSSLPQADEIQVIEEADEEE

RAW264.7 = assay: Antiinflammatory activity in mouse RAW264.7 cells assessed as inhibition of LPS-induced TNFalpha mRNA expression preincubated for 30 mins followed by LPS stimulation and incubated for 10 hrs by qPCR analysis; type: functional, cell-based
Homo sapiens [25] = species on record: Homo sapiens; assay: Selectivity for recombinant His-tagged human PDE4B over PDE4C (unknown origin)
[26] = biological target: Dual 3',5'-cyclic-AMP and -GMP phosphodiesterase 11A (Homo sapiens) (UniProt Q9HCR9); assay: Inhibition of recombinant N-terminal GST-tagged full length human PDE11A4 expressed in Sf9 cells using FAM-cAMP as substrate at 10 uM incubated for 60 mins by fluorescence plate reader analysis
[27] = Intrinsic clearance in rat liver microsomes at 5 uM by LC-MS/MS analysis; type: ADME, Microsome; details: read-out: CLH
[28] = biological target: cGMP-specific 3',5'-cyclic phosphodiesterase (Homo sapiens) (UniProt O76074); assay: Inhibition of recombinant N-terminal GST-tagged full length human PDE5A1 expressed in Sf9 cells using FAM-cGMP as substrate at 10 uM incubated for 60 mins by fluorescence plate reader analysis
[29] = Cardiotoxicity in zebrafish embryos assessed as heart rate at 1 to 100 uM; type: toxicity, Danio rerio
[30] = biological target: 3',5'-cyclic-AMP phosphodiesterase 4A (Homo sapiens) (UniProt P27815); assay: Inhibition of recombinant N-terminal GST tagged human PDE4A4B (2-end aa) expressed in Sf9 cells using FAM-cAMP as substrate at 10 uM incubated for 60 mins by fluorescence plate reader analysis
Chain of 3',5'-cyclic-AMP phosphodiesterase 4A (Homo sapiens) (P27815 whole entry): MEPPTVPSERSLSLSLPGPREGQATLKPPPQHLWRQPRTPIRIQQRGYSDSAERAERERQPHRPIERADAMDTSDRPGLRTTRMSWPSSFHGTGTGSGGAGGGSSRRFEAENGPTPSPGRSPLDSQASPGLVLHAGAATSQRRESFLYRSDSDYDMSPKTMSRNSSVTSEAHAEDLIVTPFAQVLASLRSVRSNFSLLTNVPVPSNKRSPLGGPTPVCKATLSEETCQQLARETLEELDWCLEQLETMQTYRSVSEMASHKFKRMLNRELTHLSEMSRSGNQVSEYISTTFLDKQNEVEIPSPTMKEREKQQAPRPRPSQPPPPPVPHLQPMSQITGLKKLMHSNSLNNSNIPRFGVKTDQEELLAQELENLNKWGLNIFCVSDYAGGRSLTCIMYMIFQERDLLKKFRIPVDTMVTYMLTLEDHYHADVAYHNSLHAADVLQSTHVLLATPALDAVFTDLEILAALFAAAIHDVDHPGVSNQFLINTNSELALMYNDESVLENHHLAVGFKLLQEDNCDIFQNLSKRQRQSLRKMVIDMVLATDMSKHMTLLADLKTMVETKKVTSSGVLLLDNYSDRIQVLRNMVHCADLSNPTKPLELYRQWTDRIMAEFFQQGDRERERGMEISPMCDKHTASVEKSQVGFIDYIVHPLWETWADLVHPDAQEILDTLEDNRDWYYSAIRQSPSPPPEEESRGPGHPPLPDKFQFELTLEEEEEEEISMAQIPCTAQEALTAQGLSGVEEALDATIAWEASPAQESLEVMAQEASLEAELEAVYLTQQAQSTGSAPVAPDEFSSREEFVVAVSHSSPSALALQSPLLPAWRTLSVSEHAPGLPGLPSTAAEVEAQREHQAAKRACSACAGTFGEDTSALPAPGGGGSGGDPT

Question: Which AUC(0-t) at 24 h [1] does the source give for `C=CCn1cc(-c2nc3ccccc3nc2Cl)c2cc(OC)ccc21` here?
Answer: 1090 ng·h/mL

Question: And the inhibition [2]?
Answer: 2%

Question: What about the Activity [3] of the same molecule?
Answer: Non-Toxic

Question: And the Activity [4]?
Answer: Non-Toxic

Question: What about the inhibition [5] of the same molecule?
Answer: 13%

Question: And the Activity [6]?
Answer: Non-Toxic

Question: And the inhibition (Danio rerio)?
Answer: inactive

Question: And the inhibition (Rattus norvegicus [7])?
Answer: Active

Question: What about the Activity [8] of the same molecule?
Answer: Non-Toxic

Question: And the inhibition [9]?
Answer: 40%

Question: What about the inhibition [10] of the same molecule?
Answer: 1%

Question: What about the inhibition [11] of the same molecule?
Answer: 3%

Question: And the Tmax [12]?
Answer: 4.8 min

Question: And the inhibition [13]?
Answer: 15%

Question: What about the inhibition (Rattus norvegicus [14]) of the same molecule?
Answer: Active

Question: What about the Activity [15] of the same molecule?
Answer: Toxic

Question: And the inhibition [16]?
Answer: 3%

Question: What about the Activity [17] of the same molecule?
Answer: Non-Toxic

Question: What about the AUC(0-inf) [18] of the same molecule?
Answer: 1160 ng·h/mL

Question: And the inhibition (Rattus norvegicus [19])?
Answer: Active

Question: And the half-life [20]?
Answer: 38.4 min

Question: What about the Ratio IC50 (Homo sapiens [21]) of the same molecule?
Answer: 27

Question: And the inhibition [22]?
Answer: 39%

Question: What about the inhibition (Rattus norvegicus [23]) of the same molecule?
Answer: Active

Question: And the inhibition [24]?
Answer: 1%

Question: And the inhibition (RAW264.7)?
Answer: Active

Question: What about the Selectivity ratio (Homo sapiens [25]) of the same molecule?
Answer: > 250

Question: And the inhibition [26]?
Answer: 7%

Question: And the microsomal CLint at 5 µM [27]?
Answer: 52.8 µL/min/mg

Question: What about the inhibition [28] of the same molecule?
Answer: 2%

Question: What about the Activity [29] of the same molecule?
Answer: Non-Toxic

Question: And the inhibition [30]?
Answer: 36%
